Where a name gives a salt, the structure may show the parent alone.
Test system: umbilical cord MSCs (P3-P5 cells)
Assay: agglomeration of cultured MSCs after adding ligustrazine hydrochloride and/or Shenmai injection (cell graphs)
Type: cell-based, human
Details: Day 1 after addition, ligustrazine hydrochloride 40-80 mg/L, Shenmai injection 0.5% by volume, FIG. 1 to FIG. 9
Protocol: 2.9 A ligustrazine hydrochloride (GYZZ H20041175 injection of Harbin Medisan Pharmaceutical Co., Ltd., which follows the Second Supplement to the National Standard and can be directly injected into human bodies) and a Shenmai injection (GYZZ Z63021721 of Yunnan Phytopharmaceutical Co., Ltd., which follows the National Drug Standard (Amendment) WS3-B-3428-98-2010 and can be directly injected into human bodies) were added to P3-P5 cells respectively. The concentration of the ligustrazine hydrochloride was 40-80 mg/L and the Shenmai injection was 0.5% by volume. After culture for 24 hours, change the medium and culture for another one week, the cells grown to a fusion degree of 80-90% were collected and digested for tests. The products obtained in the steps are biodetected to eliminate etiological contamination.
The cells were divided into three groups: a. only the Shenmai injection was added; b. only the ligustrazine hydrochloride was added; and c. both the Shenmai injection and the ligustrazine hydrochloride were added for comparison.

With Cc1nc(C)c(C)nc1C [ligustrazine hydrochloride] the “agglomeration of the cells” value was “improved to some extent”.

Reference: patent US11821005B2, “Umbilical cord mesenchymal stem cells (MSCs) and culture method and application thereof” (FOSHAN JINGZHUN JIEN HEALTH MANAGEMENT CONSULTING CO., LTD., priority 2019, dated 2023)
